Experimental data published in patent US20120121591A1 (priority 2009, published 2012).
Where two headings read alike, the source gives them in different places.

How the values were obtained:
Type in all cases: cell-based
[1] = target: hKv1.3 (Homo sapiens, UniProt P22001); assay: cell-based; settings: Kv1.3 (IWQ) IC50 (nM, Avg)
[2] = tested on: IL-2 secretion from T cells in human whole blood; settings: read-out: WB (IL-2) IC50 (nM, Avg)
[3] = tested on: IFN-g secretion from T cells in human whole blood
[4] = read-out: WB (IFNg) IC50 (nM, Avg)

Chain of hKv1.3 (P22001 whole entry): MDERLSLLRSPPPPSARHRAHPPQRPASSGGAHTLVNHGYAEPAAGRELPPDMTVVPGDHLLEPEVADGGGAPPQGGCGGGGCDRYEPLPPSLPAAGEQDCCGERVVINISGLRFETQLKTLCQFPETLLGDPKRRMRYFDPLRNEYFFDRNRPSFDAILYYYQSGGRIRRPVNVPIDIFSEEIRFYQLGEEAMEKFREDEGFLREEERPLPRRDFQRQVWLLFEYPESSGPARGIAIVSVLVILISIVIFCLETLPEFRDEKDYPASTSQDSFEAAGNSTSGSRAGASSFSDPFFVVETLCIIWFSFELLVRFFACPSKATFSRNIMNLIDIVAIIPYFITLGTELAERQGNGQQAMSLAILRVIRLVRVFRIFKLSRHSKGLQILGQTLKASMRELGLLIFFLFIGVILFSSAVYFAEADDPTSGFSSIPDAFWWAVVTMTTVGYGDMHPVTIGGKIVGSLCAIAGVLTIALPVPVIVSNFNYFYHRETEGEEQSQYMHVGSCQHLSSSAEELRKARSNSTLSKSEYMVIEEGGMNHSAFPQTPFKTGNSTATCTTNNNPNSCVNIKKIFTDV

SMILES	IC50 [1]	IC50 [2]	IC50 [3, 4]	IC50 ([3]; read-out: WB (IFNg) IC5- (nM, Avg))
CC[C@H](C)[C@@H]1NC(=O)[C@@H](NC(=O)[C@H](CCCNC(=N)N)NC(=O)[C@@H](N)CCCNC(=N)N)CSSC[C@@H](C(=O)O)NC(=O)[C@H]([C@@H](C)O)NC(=O)CNC(=O)[C@@H]2CSSC[C@@H]3NC(=O)[C@H](CCC(N)=O)NC(=O)[C@H](Cc4ccccc4)NC(=O)[C@H](C)NC(=O)[C@H]([C@@H](C)O)NC(=O)[C@H](CSSC[C@H](NC(=O)[C@H](Cc4ccccc4)NC(=O)[C@H](CO)NC(=O)[C@H](CC(C)C)NC(=O)[C@H](CCCNC(=N)N)NC(=O)[C@H](Cc4ccc(O)cc4)NC(=O)[C@H](CCCCN)NC(=O)[C@H](CCSC)NC(=O)[C@H](CO)NC(=O)[C@H](Cc4c[nH]cn4)NC(=O)[C@H](CCCCN)NC3=O)C(=O)N[C@@H](CCCNC(=N)N)C(=O)N[C@@H](CCCCN)C(=O)N[C@@H]([C@@H](C)O)C(=O)N2)NC(=O)[C@H](CCCNC(=N)N)NC(=O)[C@H](CO)NC(=O)[C@H](CCCCN)NC(=O)[C@@H]2CCCN2C(=O)[C@H]([C@@H](C)CC)NC(=O)[C@H]([C@@H](C)O)NC(=O)[C@H](CC(=O)O)NC1=O [[Arg2]ShK]	0.074 nM	0.097 nM	0.087 nM	
CC[C@H](C)[C@@H]1NC(=O)[C@@H](NC(=O)[C@H](CO)NC(=O)[C@@H](N)CCCNC(=N)N)CSSC[C@@H](C(N)=O)NC(=O)[C@H]([C@@H](C)O)NC(=O)CNC(=O)[C@@H]2CSSC[C@@H]3NC(=O)[C@H](CCCCN)NC(=O)[C@H](Cc4ccccc4)NC(=O)[C@H](C)NC(=O)[C@H]([C@@H](C)O)NC(=O)[C@H](CSSC[C@H](NC(=O)[C@H](Cc4ccccc4)NC(=O)[C@H](Cc4cccc5ccccc45)NC(=O)[C@H](CC(C)C)NC(=O)[C@H](CCCNC(=N)N)NC(=O)[C@H](Cc4ccc(O)cc4)NC(=O)[C@H](CCCCN)NC(=O)[C@H](CCSC)NC(=O)[C@H](CO)NC(=O)[C@H](Cc4c[nH]cn4)NC(=O)[C@H](CCCCN)NC3=O)C(=O)N[C@@H](CCCCN)C(=O)N[C@@H](CCCCN)C(=O)N[C@@H]([C@@H](C)O)C(=O)N2)NC(=O)[C@H](CCCNC(=N)N)NC(=O)[C@H](CO)NC(=O)[C@H](CCCCN)NC(=O)[C@@H]2CCCN2C(=O)[C@H]([C@@H](C)CC)NC(=O)[C@H]([C@@H](C)O)NC(=O)[C@H](CC(=O)O)NC1=O [[Lys16,29; 1-Nal26]ShK-amide]	0.341 nM	0.808 nM	1.98 nM	
CC[C@H](C)[C@@H]1NC(=O)[C@@H](NC(=O)[C@H](CO)NC(=O)[C@@H](N)CCCNC(=N)N)CSSC[C@@H](C(=O)O)NC(=O)[C@H]([C@@H](C)O)NC(=O)CNC(=O)[C@@H]2CSSC[C@@H]3NC(=O)[C@H](CCC(N)=O)NC(=O)[C@H](CCC(=O)O)NC(=O)[C@H](C)NC(=O)[C@H]([C@@H](C)O)NC(=O)[C@H](CSSC[C@H](NC(=O)[C@H](Cc4ccccc4)NC(=O)[C@H](CO)NC(=O)[C@H](CC(C)C)NC(=O)[C@H](CCCNC(=N)N)NC(=O)[C@H](Cc4ccc(O)cc4)NC(=O)[C@H](CCCCN)NC(=O)[C@H](CCSC)NC(=O)[C@H](CO)NC(=O)[C@H](Cc4c[nH]cn4)NC(=O)[C@H](CCCCN)NC3=O)C(=O)N[C@@H](CCCNC(=N)N)C(=O)N[C@@H](CCCCN)C(=O)N[C@@H]([C@@H](C)O)C(=O)N2)NC(=O)[C@H](CCCNC(=N)N)NC(=O)[C@H](CO)NC(=O)[C@H](CCCCN)NC(=O)[C@@H]2CCCN2C(=O)[C@H]([C@@H](C)CC)NC(=O)[C@H]([C@@H](C)O)NC(=O)[C@H](CC(=O)O)NC1=O [[Glu15]ShK]	0.266 nM	0.312 nM		0.575 nM
CC[C@H](C)[C@@H]1NC(=O)[C@@H](NC(=O)[C@H](CO)NC(=O)[C@@H](N)CCCNC(=N)N)CSSC[C@@H](C(=O)O)NC(=O)[C@H]([C@@H](C)O)NC(=O)CNC(=O)[C@@H]2CSSC[C@@H]3NC(=O)[C@H](CCC(N)=O)NC(=O)[C@H](Cc4ccccc4)NC(=O)[C@H](C)NC(=O)[C@H]([C@@H](C)O)NC(=O)[C@H](CSSC[C@H](NC(=O)[C@H](Cc4ccccc4)NC(=O)[C@H](CO)NC(=O)[C@H](CC(C)C)NC(=O)[C@H](CCCNC(=N)N)NC(=O)[C@H](Cc4ccc(O)cc4)NC(=O)[C@H](CCCCN)NC(=O)[C@H](CCSC)NC(=O)[C@H](CO)NC(=O)[C@H](Cc4c[nH]cn4)NC(=O)[C@H](CCCCN)NC3=O)C(=O)N[C@@H](CCCNC(=N)N)C(=O)N[C@@H](CCCCN)C(=O)N[C@@H]([C@@H](C)O)C(=O)N2)NC(=O)[C@H](CCCNC(=N)N)NC(=O)[C@H](CO)NC(=O)[C@H](CCCCN)NC(=O)[C@@H]2CCCN2C(=O)[C@H](CCCNC(=N)N)NC(=O)[C@H]([C@@H](C)O)NC(=O)[C@H](CC(=O)O)NC1=O [[Arg7]ShK]	0.301 nM	6.39 nM	11.1 nM	
CC[C@H](C)[C@@H]1NC(=O)[C@@H](NC(=O)[C@H](CO)NC(=O)[C@@H](N)CCCNC(=N)N)CSSC[C@@H](C(N)=O)NC(=O)[C@H]([C@@H](C)O)NC(=O)CNC(=O)[C@@H]2CSSC[C@@H]3NC(=O)[C@H](CCCCN)NC(=O)[C@H](Cc4ccccc4)NC(=O)[C@H](C)NC(=O)[C@H]([C@@H](C)O)NC(=O)[C@H](CSSC[C@H](NC(=O)[C@H](Cc4ccccc4)NC(=O)[C@H](CO)NC(=O)[C@H](CC(C)C)NC(=O)[C@H](CCCNC(=N)N)NC(=O)[C@H](Cc4ccc(O)cc4)NC(=O)[C@H](CCCCN)NC(=O)[C@H](Cc4ccccc4)NC(=O)[C@H](CO)NC(=O)[C@H](Cc4c[nH]cn4)NC(=O)[C@H](CCCCN)NC3=O)C(=O)N[C@@H](CCCNC(=N)N)C(=O)N[C@@H](CCCCN)C(=O)N[C@@H]([C@@H](C)O)C(=O)N2)NC(=O)[C@H](CCCNC(=N)N)NC(=O)[C@H](CO)NC(=O)[C@H](CCCCN)NC(=O)[C@@H]2CCCN2C(=O)[C@H]([C@@H](C)CC)NC(=O)[C@H]([C@@H](C)O)NC(=O)[C@H](CC(=O)O)NC1=O [[Lys16, Phe21]ShK-amide]	0.246 nM	1.47 nM	2.04 nM	
CC[C@H](C)[C@@H]1NC(=O)[C@@H](NC(=O)[C@H](CO)NC(=O)[C@@H](N)CCCNC(=N)N)CSSC[C@@H](C(=O)O)NC(=O)[C@H]([C@@H](C)O)NC(=O)CNC(=O)[C@@H]2CSSC[C@@H]3NC(=O)[C@H](CCC(N)=O)NC(=O)[C@H](Cc4ccccc4)NC(=O)[C@H](C)NC(=O)[C@H]([C@@H](C)O)NC(=O)[C@H](CSSC[C@H](NC(=O)[C@H](Cc4ccccc4)NC(=O)[C@H](CO)NC(=O)[C@H](CC(C)C)NC(=O)[C@H](CCCNC(=N)N)NC(=O)[C@H](Cc4ccc(O)cc4)NC(=O)[C@H](CCCCN)NC(=O)[C@H](CCSC)NC(=O)[C@H](CO)NC(=O)[C@H](Cc4c[nH]cn4)NC(=O)[C@H](CCCCN)NC3=O)C(=O)N[C@@H](CCCNC(=N)N)C(=O)N[C@@H](CCCNC(=N)N)C(=O)N[C@@H]([C@@H](C)O)C(=O)N2)NC(=O)[C@H](CCCNC(=N)N)NC(=O)[C@H](CO)NC(=O)[C@H](CCCCN)NC(=O)[C@@H]2CCCN2C(=O)[C@H]([C@@H](C)CC)NC(=O)[C@H]([C@@H](C)O)NC(=O)[C@H](CC(=O)O)NC1=O [[Arg30]ShK]	0.04 nM	0.014 nM	0.027 nM	
CC[C@H](C)[C@@H]1NC(=O)[C@@H](NC(=O)[C@H](CO)NC(=O)[C@@H](N)CCCNC(=N)N)CSSC[C@@H](C(N)=O)NC(=O)[C@H]([C@@H](C)O)NC(=O)CNC(=O)[C@@H]2CSSC[C@@H]3NC(=O)[C@H](CCCCN)NC(=O)[C@H](Cc4ccccc4)NC(=O)[C@H](C)NC(=O)[C@H]([C@@H](C)O)NC(=O)[C@H](CSSC[C@H](NC(=O)[C@H](Cc4ccccc4)NC(=O)[C@H](CO)NC(=O)[C@H](CC(C)C)NC(=O)[C@H](CCCNC(=N)N)NC(=O)[C@H](Cc4ccc(O)cc4)NC(=O)[C@H](CCCCN)NC(=O)[C@H](CCC(N)=O)NC(=O)[C@H](CO)NC(=O)[C@H](Cc4c[nH]cn4)NC(=O)[C@H](CCCCN)NC3=O)C(=O)N[C@@H](CCCNC(=N)N)C(=O)N[C@@H](CCCCN)C(=O)N[C@@H]([C@@H](C)O)C(=O)N2)NC(=O)[C@H](CCCNC(=N)N)NC(=O)[C@H](CO)NC(=O)[C@H](CCCCN)NC(=O)[C@@H]2CCCN2C(=O)[C@H]([C@@H](C)CC)NC(=O)[C@H]([C@@H](C)O)NC(=O)[C@H](CC(=O)O)NC1=O [[Lys16, Gln21]ShK-amide]	0.161 nM	0.42 nM	0.812 nM	
CC[C@H](C)[C@@H]1NC(=O)[C@@H](NC(=O)[C@H](CO)NC(=O)[C@@H](N)CCCNC(=N)N)CSSC[C@@H](C(=O)O)NC(=O)[C@H]([C@@H](C)O)NC(=O)CNC(=O)[C@@H]2CSSC[C@@H]3NC(=O)[C@H](CCCCN)NC(=O)[C@H](C)NC(=O)[C@H](C)NC(=O)[C@H]([C@@H](C)O)NC(=O)[C@H](CSSC[C@H](NC(=O)[C@H](Cc4ccccc4)NC(=O)[C@H](CO)NC(=O)[C@H](CC(C)C)NC(=O)[C@H](CCCNC(=N)N)NC(=O)[C@H](Cc4ccc(O)cc4)NC(=O)[C@H](CCCCN)NC(=O)[C@H](CCSC)NC(=O)[C@H](CO)NC(=O)[C@H](Cc4c[nH]cn4)NC(=O)[C@H](CCCCN)NC3=O)C(=O)N[C@@H](CCCNC(=N)N)C(=O)N[C@@H](CCCCN)C(=O)N[C@@H]([C@@H](C)O)C(=O)N2)NC(=O)[C@H](CCCNC(=N)N)NC(=O)[C@H](CO)NC(=O)[C@H](CCCCN)NC(=O)[C@@H]2CCCN2C(=O)[C@H]([C@@H](C)CC)NC(=O)[C@H]([C@@H](C)O)NC(=O)[C@H](CC(=O)O)NC1=O [[Ala15, Lys16]ShK]	0.96 nM	0.057 nM	0.052 nM	
CC[C@H](C)[C@@H]1NC(=O)[C@H]([C@@H](C)O)NC(=O)[C@H](CC(=O)O)NC(=O)[C@H](CCC(=O)O)NC(=O)[C@@H](NC(=O)[C@H](CO)NC(=O)[C@@H](N)CCCNC(=N)N)CSSC[C@@H](C(N)=O)NC(=O)[C@H]([C@@H](C)O)NC(=O)CNC(=O)[C@@H]2CSSC[C@@H]3NC(=O)[C@H](CCCCN)NC(=O)[C@H](Cc4ccccc4)NC(=O)[C@H](C)NC(=O)[C@H]([C@@H](C)O)NC(=O)[C@H](CSSC[C@H](NC(=O)[C@H](Cc4ccccc4)NC(=O)[C@H](CO)NC(=O)[C@H](CC(C)C)NC(=O)[C@H](CCCNC(=N)N)NC(=O)[C@H](Cc4ccc(O)cc4)NC(=O)[C@H](CCCCN)NC(=O)[C@H](CCSC)NC(=O)[C@H](CO)NC(=O)[C@H](Cc4c[nH]cn4)NC(=O)[C@H](CCCCN)NC3=O)C(=O)N[C@@H](CCCCN)C(=O)N[C@@H](CCCNC(=N)N)C(=O)N[C@@H]([C@@H](C)O)C(=O)N2)NC(=O)[C@H](CCCNC(=N)N)NC(=O)[C@H](CO)NC(=O)[C@H](CCCCN)NC(=O)[C@@H]2CCCN2C1=O [[Glu4; Lys16,29;Arg30]ShK-amide]	0.104 nM	0.067 nM	0.28 nM	
